According to US5342834A, “Method for androgen supplementation” (priority 1992, dated 1994):
Entries after “also recorded” stand apart in the source; their conditions may differ.

Experiments:
[1] = Non-androgenic (e.g. progestational) activity
[2] = Metabolism (decrease of steroid level) in incubation with rat liver cytosol; type: in vitro ADME; settings: for remaining at 2 h: 2h incubation, read-out: steroid remaining unmetabolized / recovered
Protocol: (§1) To prepare rat liver microsomes and cytosol, thawed livers were homogenized in 4 vol. of TED buffer (10mM Tricine, 1.5 mM EDTA, 1 mM dithiothreitol, pH 7.4) using a glass homogenizer and a loosefitting Teflon piston for nine strokes with intermittent cooling. This and all subsequent steps were performed at 4° C. The homogenate was spun at 13000×g for 30 min in a Sorvall refrigerated centrifuge. The supernatant fraction was recentrifuged at 13000×g for another 30 min. The resulting supernatant fraction (13K supernatant) was centrifuged at 105,000×g using a Beckman Ultracentrifuge (Model L) for 60 min. The 105K supernatant (cytosol) was saved. The microsomal pellet was resuspended in TED buffer, and spun down again at 105,000×g. The resulting pellet is known as the 105K pellet of the microsome fraction (or "microsome") .
(§2) Incubation mixtures consisted of 52 nmol of unlabeled steroid (T, 7MNT or 19NT), approximately 40,000 CPM of the corresponding tritiated steroid and 5 umol of NADPH in 0.2 ml TED buffer (pH 7.4). This was incubated for 10 min at 37° C. in a constant temperature water bath. Reaction was initiated by the addition of 0.8 ml of either 13K supernatant, microsomes or cytosol, containing 7.05, 0.62 or 5.64 mg/ml of protein, respectively. Incubations were quenched with 2 ml of ethyl acetate, vortexed briefly, and frozen in a dry ice-alcohol bath. The ethyl acetate was separated from the frozen aqueous phase. Extraction was performed again in the same way. The combined organic phase was evaporated and the remaining steroids were analyzed.
The procedure used for the cytosol preparations was the same as that for microsomes, except that incubations were carried out for 90 min.
(§3) For isolation of radioactive metabolites, the procedure was the same as for unlabeled metabolites, except that each tube contained 50,000 CPM of ^3 H-labeled 7MNT.
(§4) In this series of experiments, the decreases in the levels of testosterone,19-nortestosterone, and 7MNT were followed over a two-hour period of incubation with microsomal or cytosolic fractions of rat liver. […] Catabolism of 19NT was maximum at 30 min, with no further change beyond that, leaving a persistent unmetabolized residue of about 20 percent of the added steroid. After 30 min of incubation, 85 percent of the 7MNT remained unaltered; forty percent of the 7MNT was recovered after 2h.

[3] = Metabolism (5α reduction) of 3H-androgens by rat ventral prostate homogenate; type: in vitro ADME; settings: for metabolism / 5α reduction in prostate (in words): prostate homogenate; for metabolised at 0.5 h: rat, ventral prostate homogenate, ventral prostate, androgen = 100%, 30 min incubation, read-out: Conversion of 5α reduced metabolites: 5α-dihydro-steroid
Protocol: To study metabolism in rat prostate, ventral prostates (1 g) were collected in ice-cold saline. All subsequent operations were carried out at 0°-4° C. The tissues were washed three times with homogenizing buffer (50 mM tris, 1.5 mM EDTA, 1 mM dithiothreitol and 10% glycerol, pH 7.5) and then homogenized in 4 vol. of the same buffer using an Ultra-turrax at a setting of 6. The prostates were given three 10 seconds bursts with intermittent cooling. The resulting homogenate was passed through four layers of cheesecloth and the filtrate was collected.
Incubation mixtures consisted of 50 nmol of unlabeled steroid, 40,000 CPM of the corresponding tritiated steroid and 1 μmol of NADPH in 0.2 ml of the buffer. The mixture was equilibrated for 10 min at 37° C. Reaction was started by adding 0.8 ml of homogenate (5.3 mg/ml protein). After 30 min of incubation, the mixture was cochromatographed with authentic steroids selected as possible metabolites.

[4] = Metabolism (5α reduction) of 3H-androgens by rat epididymis; type: in vitro ADME; settings: for metabolised: rat, epididymis homogenate, pH 7.4, androgen = 100%, read-out: Conversion of 5α reduced metabolites: Diols
Protocol: The metabolism of T, 19NT and 7MNT by rat epididymis was also studied. Collected epididymides were processed as described for prostate. Incubations were performed in Tricine-buffer pH 7.4 as used for liver incubations. Thin layer chromatography of metabolic mixtures and standards was performed as described for prostate preparations.

[5] = Metabolism by rat liver 13K supernatant fraction; type: in vitro ADME; settings: 30 min, 37° C., system enriched with NADPH
Protocol: as §1
as §2, with “Incubations were quenched with 2 ml of ethyl acetate, vortexed briefly, and frozen in a dry ice-alcohol bath. The ethyl acetate was separated from the frozen aqueous phase. Extraction was performed again in the same way.” left out, “analyzed. […]” for “analyzed.”

[6] = Metabolism (decrease of steroid level) in incubation with rat liver microsomes; type: in vitro ADME
Protocol: as §1, §2
In preparation for the isolation and identification of unlabelled steroid metabolites in the microsome preparations, 360 μg of 7MNT were dispensed into 24 tubes in parallel with identical tubes containing ^3 H-labeled 7MNT to be used as marker steroid. The mixtures were incubated for 60 min at 37° C., extracted twice with 2 ml of ethyl acetate, taken to dryness, redissolved in a mixture of dichloromethane/methanol (1:1, v/v) and quantitatively applied to silica gel coated TLC plates along with synthetically prepared suspected metabolites of radioactive 7MNT in a parallel lane. The plates were developed with chloroform/methanol (95:5, v/v). Spots corresponding to the radioactive marked spots were eluted with ethyl acetate and taken to dryness.
as §3, §4

[7] = background statement; cited from earlier work

| SMILES | non-androgenic activity (in words) [1] | metabolism in cytosol (in words) [2] | metabolism / 5α reduction in prostate (in words) [3] | androgen potency (in words) (Androgenic potency) | metabolism / 5α reduction in epididymis (in words) [4] | metabolism by 13K supernatant (in words) [5] | metabolism in microsomes (in words) [6] | remaining at 0.5 h ([6]; after 30 min of incubation, read-out: steroid remaining unaltered) [%] | steroid recovered ([6]; after 2h) | remaining at 2 h [2] [%] | metabolised at 0.5 h [3] [%] | metabolised [4] [%] | persistent unmetabolized residue of the added steroid ([6]; beyond 30 min of two-hour incubation) | time of maximum catabolism ([6]; two-hour incubation) [min] | androgen potency versus testosterone (in words) [7] | time before which steroid was completely metabolized ([6]; earliest aliquot taken at 15 min) [min] |
| --- | --- | --- | --- | --- | --- | --- | --- | --- | --- | --- | --- | --- | --- | --- | --- | --- |
| C[C@@H]1CC2=CC(=O)CC[C@@H]2[C@H]2CC[C@]3(C)[C@@H](O)CC[C@H]3[C@@H]21 [7MNT, 7α-methyl-19-nortestosterone] | lack of significant non-androgenic activity | Half of the starting 7MNT was recovered after 2h incubation; also recorded: generated at least one metabolite that was more polar than the parent compound | substantially no 5α-dihydro product was formed in either tissue; also recorded: remained unmetabolized; also recorded: did not reduce or otherwise metabolize 7MNT; also recorded: not converted to the 5α-dihydro product | high potency | substantially no 5α-dihydro product was formed in either tissue; also recorded: epididymis did not reduce or otherwise metabolize 7MNT | relatively resistant to metabolism under these incubation conditions; also recorded: Two metabolites, tentatively identified as 7α-methyl-5β-estrane-3, 17β-diol and 7α-methyl-estr-4-ene-3, 17-dione were found; also recorded: A minor highly polar metabolite was also observed | After 30 min of incubation, most of the 7MNT was retrieved unaltered; also recorded: Two significant 7α-methylated metabolites were observed: a less polar one representing the 3,17-dione, and a more polar one in the region of the diols or triols; also recorded: An additional quantitatively minor polar metabolite was also detected | 85 | forty | – | – | – | – | – | – | – |
| C[C@]12CC[C@H]3[C@@H](CCC4=CC(=O)CC[C@@H]43)[C@@H]1CC[C@@H]2O [19NT, 19-nortestosterone] | – | still slower | metabolized to the reduced product more slowly than testosterone | – | converted to their respective reduced A ring metabolites; also recorded: metabolized more slowly than T | – | qualitatively similar to that of T, though slower | – | – | 40 | 22 | 57 | about 20% | 30 | – | – |
| C[C@]12CCC(=O)C[C@@H]1CC[C@@H]1[C@@H]2CC[C@]2(C)[C@@H](O)CC[C@@H]12 [DHT, 5α-dihydrotestosterone] | – | – | – | – | – | – | – | – | – | – | – | – | – | – | much more potent androgen than testosterone | – |
| C[C@]12CC[C@H]3[C@@H](CCC4=CC(=O)CC[C@@]43C)[C@@H]1CC[C@@H]2O [T, testosterone] | – | – | nearly half of the added T was reduced to 5α-DHT | – | converted to their respective reduced A ring metabolites | – | completely metabolized by the microsomes before the earliest aliquot was taken | – | – | ~12 | 48 | 86 | – | – | – | < 15 |
